Values of other authors, collected in paper PMC7496964 (Chemistry (Weinheim an Der Bergstrasse, Germany), 2020).

Target: human langerin ECD (Homo sapiens, UniProt Q9UJ71)
Sequence (Q9UJ71 65-328 limits assumed): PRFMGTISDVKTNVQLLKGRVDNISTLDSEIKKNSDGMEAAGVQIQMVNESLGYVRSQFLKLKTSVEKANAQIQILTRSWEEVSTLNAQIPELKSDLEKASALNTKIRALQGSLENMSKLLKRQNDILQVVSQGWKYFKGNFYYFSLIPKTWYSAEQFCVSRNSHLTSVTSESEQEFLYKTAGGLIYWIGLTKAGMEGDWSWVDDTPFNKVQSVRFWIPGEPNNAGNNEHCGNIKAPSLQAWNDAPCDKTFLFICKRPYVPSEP

Substance: 1-α-azido B-trisaccharide [compound 10]
- Langerin affinity (in words), literature: weak affinity
